Data as given in ChEMBL document CHEMBL1201862, “PubChem BioAssay data set” (2004).
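48-hour exposure; five concentrations; linearly interpolated endpoints. GI50: concentration for 50% inhibition of growth.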 Active and inactive are the calls of the source. No stated cut-off is given here; in the data, active = GI50 up to about 1.1 µM and inactive = higher.

Columns and labels:
Assay in all cases: DTP human tumour cell line panel, 48 h
[1] = tested on: A498
[2] = tested on: SK-OV-3
[3] = tested on: RXF 393
[4] = tested on: OVCAR-4
[5] = tested on: SK-MEL-28
[6] = tested on: SF-295
[7] = tested on: SNB-78
[8] = tested on: HOP-62
[9] = tested on: UO-31
[10] = tested on: LOX IMVI
[11] = tested on: M14
[12] = tested on: ACHN
[13] = tested on: CCRF-CEM
[14] = tested on: SK-MEL-2
[15] = tested on: SK-MEL-5
[16] = tested on: DU-145
[17] = tested on: MDA-MB-435
[18] = tested on: BT-549
[19] = tested on: MDA-MB-231
[20] = tested on: T47D

Measured: GI50

CCOC(=O)C(CCC(N)=O)(CCC(=O)OC)C(=O)OCC
inactive: [1] > 100 µM | [2] > 100 µM | [3] > 100 µM | [4] > 100 µM | [5] > 100 µM | [6] > 100 µM | [7] > 100 µM | [8] > 100 µM | [9] > 100 µM | [10] > 100 µM | [11] > 100 µM | [12] > 100 µM

O=C1C2CC=CCC2C(=O)C12CCc1ccccc12 (stereo not drawn)
inactive: [2] > 100 µM | [3] > 100 µM | [4] > 100 µM | [5] > 100 µM | [6] > 100 µM | [7] > 100 µM | [8] > 100 µM | [9] > 100 µM | [10] > 100 µM | [13] > 100 µM | [11] > 100 µM | [12] > 100 µM

CC(O)CNC(=O)C(C)Oc1ccc(OCC2CCCCC2)cc1 (stereo not drawn)
inactive: [14] > 100 µM | [1] 20.7 µM | [2] > 100 µM | [4] > 100 µM | [15] > 100 µM | [5] > 100 µM | [6] 84.1 µM | [7] > 100 µM | [9] > 100 µM | [10] > 100 µM | [13] > 100 µM | [11] > 100 µM | [12] > 100 µM

COc1ccc(CNc2cnc3ccc(N)cc3n2)cc1
inactive: [14] > 100 µM | [4] > 100 µM | [15] 35.3 µM | [5] 3.84 µM | [6] > 100 µM | [7] 82.8 µM | [8] > 100 µM | [9] > 100 µM | [10] > 100 µM | [13] 49.2 µM | [11] > 100 µM | [12] > 100 µM

COc1cccc(C(=O)N2CCc3ccccc32)c1OC
inactive: [14] > 100 µM | [2] 48.8 µM | [3] 63.1 µM | [4] 48.9 µM | [15] 69.8 µM | [5] > 100 µM | [6] 38.5 µM | [7] > 100 µM | [8] > 100 µM | [9] > 100 µM | [10] 87.7 µM | [13] 42.2 µM | [11] 43.6 µM | [12] 64.9 µM

CCOC(=O)NC(=O)c1cn(CCN2CCN(C(=O)CNC(=O)CNC(=O)Cn3cc(C(=O)NC(=O)OCC)c(=O)[nH]c3=O)CC2)c(=O)[nH]c1=O
inactive: [14] > 100 µM | [1] > 100 µM | [2] > 100 µM | [5] > 100 µM | [6] > 100 µM | [7] > 100 µM | [8] > 100 µM | [9] > 100 µM | [10] > 100 µM | [13] > 100 µM | [11] > 100 µM | [12] > 100 µM

Cc1nc2nnnn2c2c1C(=O)Nc1ccccc1N2
inactive: [14] > 100 µM | [2] > 100 µM | [3] > 100 µM | [5] > 100 µM | [6] > 100 µM | [7] > 100 µM | [8] 71.9 µM | [9] > 100 µM | [10] > 100 µM | [13] > 100 µM | [11] > 100 µM | [12] 73.3 µM

COc1ccc2c(c1)C(=O)N1CCOC1C2C(=O)O (stereo not drawn)
inactive: [1] > 100 µM | [2] > 100 µM | [4] > 100 µM | [15] > 100 µM | [5] > 100 µM | [6] 4.08 µM | [7] > 100 µM | [8] > 100 µM | [9] > 100 µM | [10] > 100 µM | [13] > 100 µM | [11] > 100 µM | [12] > 100 µM

O=C(Cc1nc2ccccc2s1)NC12CC3CC(CC(C3)C1)C2
inactive: [14] > 100 µM | [1] > 100 µM | [2] > 100 µM | [4] > 100 µM | [5] > 100 µM | [6] > 100 µM | [7] > 100 µM | [8] > 100 µM | [9] > 100 µM | [10] > 100 µM | [13] > 100 µM | [11] > 100 µM | [12] > 100 µM

COc1ccc(C(Cl)=C(c2ccc(OCCN(C)C)cc2)c2ccc(OCCN(C)C)cc2)cc1
inactive: [14] 1.68 µM | [2] 2.53 µM | [3] 1.13 µM | [4] 2.49 µM | [15] 1.73 µM | [5] 1.63 µM | [6] 1.74 µM | [7] 1.71 µM | [8] 3.14 µM | [9] 1.58 µM | [13] 1.16 µM | [11] 1.5 µM | [12] 1.82 µM

OCC(O)C(O)C(O)c1nn(-c2ccc(F)cc2)c2nc3cc(Cl)c(Cl)cc3nc12 (stereo not drawn)
inactive: [14] 17.3 µM | [2] 23.3 µM | [3] 15.6 µM | [4] 6.21 µM | [5] 16.8 µM | [6] 29.1 µM | [7] 13.8 µM | [8] 12.7 µM | [9] 33.5 µM | [10] 18.3 µM | [13] 14.9 µM | [11] 18.2 µM | [12] > 10 µM

OCC1OC2c3ccccc3COC2C1OCc1ccccc1 (stereo not drawn)
inactive: [14] > 100 µM | [2] > 100 µM | [3] > 100 µM | [4] > 100 µM | [15] 38.1 µM | [5] > 100 µM | [6] 88.9 µM | [7] > 100 µM | [9] > 100 µM | [11] > 100 µM | [12] > 100 µM

CC(C)(C)CC(C)(C)c1ccc(O)c(C[N+](C)(C)[O-])c1
inactive: [14] > 100 µM | [1] > 100 µM | [16] > 100 µM | [2] > 100 µM | [3] > 100 µM | [17] 79.4 µM | [4] 63.5 µM | [15] 58.9 µM | [5] > 100 µM | [6] > 100 µM | [8] > 100 µM | [18] > 100 µM | [19] > 100 µM | [20] 68.2 µM | [9] 60.1 µM | [10] > 100 µM | [13] 41.8 µM | [11] > 100 µM | [12] > 100 µM

O=C1CSC2(CC(/C=C/c3cccc(Br)c3)=NN2c2cccc(S(=O)(=O)O)c2)N1c1nc2ccccc2s1 (stereo not drawn)
inactive: [14] > 100 µM | [1] > 100 µM | [16] > 100 µM | [2] > 100 µM | [3] > 100 µM | [17] 62.4 µM | [4] > 77.8 µM | [15] > 100 µM | [5] > 100 µM | [6] > 100 µM | [8] > 100 µM | [18] > 100 µM | [19] > 100 µM | [20] 38.5 µM | [9] > 96.6 µM | [10] > 82.6 µM | [13] 20 µM | [11] > 100 µM | [12] > 100 µM
